± gives the standard deviation of the averaged measurements.
How the values were obtained:
Conditions in all cases: 72 h
U2OS [1] = test: cell viability relative to DMSO; higher = less toxic
Caco-2 [2] = test: as above
HepG2 [3] = test: as above
Calu-3 [4] = test: as above
Vero E6 [5] = test: as above
U2OS [6] = test: relative viability EC50 (midpoint between 100% and the lowest measured viability); higher = less toxic
Caco-2 [7] = test: as above
HepG2 [8] = test: as above
Calu-3 [9] = test: as above
Vero E6 [10] = test: as above
U2OS [11] = test: drug sensitivity score (DSS) for viability; higher = more toxic; extreme values may be limits of the assay
Caco-2 [12] = test: as above
HepG2 [13] = test: as above
Calu-3 [14] = test: as above
Vero E6 [15] = test: as above

Row | SMILES | cell viability (U2OS [1]; 1 nM) | cell viability (U2OS [1]; 10 nM) | cell viability (U2OS [1]; 100 nM) | cell viability (U2OS [1]; 1000 nM) | cell viability (U2OS [1]; 10000 nM) | cell viability (Caco-2 [2]; 1 nM) | cell viability (Caco-2 [2]; 10 nM) | cell viability (Caco-2 [2]; 100 nM) | cell viability (Caco-2 [2]; 1000 nM) | cell viability (Caco-2 [2]; 10000 nM) | cell viability (HepG2 [3]; 1 nM) | cell viability (HepG2 [3]; 10 nM) | cell viability (HepG2 [3]; 100 nM) | cell viability (HepG2 [3]; 1000 nM) | cell viability (HepG2 [3]; 10000 nM) | cell viability (Calu-3 [4]; 1 nM) | cell viability (Calu-3 [4]; 10 nM) | cell viability (Calu-3 [4]; 100 nM) | cell viability (Calu-3 [4]; 1000 nM) | cell viability (Calu-3 [4]; 10000 nM) | cell viability (Vero E6 [5]; 1 nM) | cell viability (Vero E6 [5]; 10 nM) | cell viability (Vero E6 [5]; 100 nM) | cell viability (Vero E6 [5]; 1000 nM) | cell viability (Vero E6 [5]; 10000 nM) | relative viability EC50 (U2OS [6]) | relative viability EC50 (Caco-2 [7]) | relative viability EC50 (HepG2 [8]) | relative viability EC50 (Calu-3 [9]) | relative viability EC50 (Vero E6 [10]) | drug sensitivity score (U2OS [11]) | drug sensitivity score (Caco-2 [12]) | drug sensitivity score (HepG2 [13]) | drug sensitivity score (Calu-3 [14]) | drug sensitivity score (Vero E6 [15])
1 | COc1cc(C)nc(-n2nc(C)cc2OC)n1 [epirizole] | 95.1% | 101% | 94.8% | 99.8% | 97% | 83.5% | 92.7% | 82.3% | 97.4% | 89% | 103% | 96.7% | 105% | 94% | 97.8% | 91.9% | 92.2% | 88.3% | 97.3% | 86% | 112% | 99.3% | 110% | 105% | 94.9% | > 10 µM | > 10 µM | > 10 µM | > 10 µM | > 10 µM | 0 | 0 | 0 | 0 | 0
2 | CC1(C)CCC2=C(O1)c1ccccc1C(=O)C2=O [beta-lapachone] | 106% | 100% | 101% | 96.5% | 21.5% | 101% | 96.5% | 91.9% | 96.3% | 29.9% | 107% | 99.3% | 94.4% | 99.5% | 7.5% | 109% | 91.4% | 110% | 106% | 91.2% | 104% | 105% | 101% | 102% | 91.6% | 2.83 µM | 2.75 µM | 3.12 µM | > 10 µM | > 10 µM | 4.8 | 4.4 | 5.2 | 0 | 0
3 | O=C(O)COCCN1CCN(C(c2ccccc2)c2ccc(Cl)cc2)CC1 (stereo not drawn) [cetirizine] | 95.5 ± 3.3% | 98.05 ± 0.071% | 96.2 ± 0.14% | 93.8 ± 4.5% | 102 ± 1.4% | 91 ± 0.14% | 81.8 ± 7.7% | 97.8 ± 6.4% | 88 ± 12% | 107 ± 5.2% | 100 ± 1.4% | 100 ± 1.1% | 101 ± 5.7% | 103 ± 3.5% | 102 ± 4.1% | 94.7 ± 5.4% | 105 ± 1.1% | 100.25 ± 0.071% | 95.8 ± 8.7% | 102 ± 2.5% | 93.7 ± 5.7% | 97.3 ± 1.6% | 88.5 ± 4.5% | 95.3 ± 2.4% | 100 ± 1.8% | > 10 µM | > 10 µM | > 10 µM | > 10 µM | > 10 µM | 0 | 0 | 0 | 0 | 0
4 | Cc1cccc(C#Cc2ccccc2)n1 [MPEP] | 103% | 100% | 98.6% | 103% | 94% | 98.7% | 94.5% | 98.1% | 102% | 95% | 98.8% | 94.6% | 101% | 101% | 103% | 91.5% | 95.5% | 88.2% | 89.6% | 91.1% | 98.1% | 94.9% | 96.6% | 97.1% | 95% | > 10 µM | > 10 µM | > 10 µM | > 10 µM | > 10 µM | 0 | 0 | 0 | 0.1 | 0
5 | O[C@H]1[C@H]2[C@H](O)CCCN2C[C@H]1O [swainsonine] | 95.8% | 103% | 98.5% | 105% | 92.3% | 79% | 95.1% | 86.8% | 81.5% | 81.7% | 110% | 96.4% | 90.9% | 88.9% | 94.2% | 97.5% | 104% | 91.1% | 88.7% | 87.1% | 112% | 97% | 97.5% | 83.7% | 88.1% | > 10 µM | > 10 µM | > 10 µM | > 10 µM | > 10 µM | 0 | 0 | 0.5 | 1.3 | 2
6 | Oc1ccc(-c2nc(-c3ccc(F)cc3)c(-c3ccncc3)[nH]2)cc1 | 96.6% | 101% | 94.8% | 98.1% | 89.8% | 88.1% | 104% | 100% | 95% | 91.1% | 101% | 103% | 102% | 94% | 83.5% | 87.3% | 106% | 104% | 118% | 91.2% | 97.7% | 100% | 91.1% | 93.4% | 111% | > 10 µM | > 10 µM | > 10 µM | > 10 µM | > 10 µM | 0 | 0 | 0.9 | 0 | 0
7 | COc1cccc2c1C(=O)c1c(O)c3c(c(O)c1C2=O)C[C@@](O)(C(=O)CO)C[C@@H]3O[C@H]1C[C@H](N2CCO[C@H](OC)C2)[C@H](O)[C@H](C)O1 [nemorubicin] | 91.8% | 1.3% | 0.9% | 0.3% | 1.3% | 88.8% | 24.6% | 30.4% | 32.6% | 24.5% | 55.4% | 0.1% | 6.3% | 3% | 1.5% | 69.2% | 21.2% | 35.1% | 31.5% | 30% | 72.6% | 2.4% | 2.8% | 0.8% | 2.7% | 0.0025 µM | 0.002 µM | 0.0011 µM | 0.0012 µM | 0.0016 µM | 44.1 | 35.1 | 48 | 38.4 | 46.1
8 | Nc1nc(OCc2ccccc2)c2nc[nH]c2n1 [O6-benzylguanine] | 101% | 99.9% | 100% | 97.3% | 104% | 105% | 95.2% | 98% | 98.7% | 106% | 95.9% | 105% | 96.8% | 108% | 94.6% | 103% | 89.5% | 107% | 88.1% | 105% | 93.6% | 108% | 87.3% | 103% | 90.4% | > 10 µM | > 10 µM | > 10 µM | > 10 µM | > 10 µM | 0 | 0 | 0 | 0 | 0
9 | COC(=O)c1c(-c2cc(OC)c(OC)c(OC)c2)c2ccnc(OCc3ncccn3)c2c(=O)n1Cc1ccnc(C)c1 [T-0156] | 95.6% | 103% | 96.5% | 99.3% | 100% | 96.4% | 93% | 89.6% | 99.9% | 103% |  |  |  |  |  | 87% | 96.4% | 90.2% | 98.5% | 101% | 96% | 94.4% | 102% | 105% | 109% | > 10 µM | > 10 µM |  | > 10 µM | > 10 µM | 0 | 0 |  | 0 | 0
10 | CCCCC(=O)N(Cc1ccc(-c2ccccc2-c2nnn[nH]2)cc1)[C@H](C(=O)O)C(C)C [valsartan] | 101% | 98.8% | 96.9% | 97.2% | 101% | 92% | 94.3% | 88.6% | 102% | 96% | 107% | 101% | 93.4% | 97.3% | 103% | 103% | 108% | 95.6% | 102% | 90.9% | 101% | 99.8% | 98.1% | 100% | 99.9% | > 10 µM | > 10 µM | > 10 µM | > 10 µM | > 10 µM | 0 | 0 | 0 | 0 | 0
11 | CC(C)(C)C(=O)NCCCC(=O)O [pivagabine] | 101% | 105% | 98.4% | 101% | 102% | 92.3% | 97.2% | 88.8% | 95.9% | 92.2% | 99% | 111% | 98.5% | 106% | 108% | 101% | 110% | 98.3% | 99.1% | 106% | 95.1% | 99.2% | 96.4% | 98.3% | 91.7% | > 10 µM | > 10 µM | > 10 µM | > 10 µM | > 10 µM | 0 | 0 | 0 | 0 | 0
12 | COc1ccccc1N1CCN(CCN2C(=O)c3ccccc3C(C)(C)C2=O)CC1 [ARC-239] | 96.8% | 95.3% | 97.9% | 101% | 95.9% | 102% | 101% | 91.3% | 98.2% | 92.6% | 107% | 95% | 106% | 102% | 97.3% | 105% | 104% | 100% | 102% | 95% | 104% | 95.2% | 102% | 102% | 103% | > 10 µM | > 10 µM | > 10 µM | > 10 µM | > 10 µM | 0 | 0 | 0 | 0 | 0
13 | CN(C)CC(c1ccc(O)cc1)C1(O)CCCCC1 (stereo not drawn) [desvenlafaxine] | 99.1% | 99.7% | 96.5% | 97.5% | 94.2% | 105% | 102% | 99.6% | 98.2% | 99.2% |  |  |  |  |  | 98.8% | 110% | 97.3% | 109% | 98.7% | 101% | 97.2% | 97.5% | 92.6% | 94.3% | > 10 µM | > 10 µM |  | > 10 µM | > 10 µM | 0 | 0 |  | 0 | 0
14 | Cc1cccc(C)c1NC(=O)c1ccccc1C(=O)O [ftaxilide] | 102% | 105% | 98.5% | 101% | 97.2% | 94.5% | 100% | 102% | 99.8% | 104% |  |  |  |  |  | 103% | 106% | 98.6% | 122% | 106% | 107% | 102% | 99.8% | 96.3% | 100% | > 10 µM | > 10 µM |  | > 10 µM | > 10 µM | 0 | 0 |  | 0 | 0
15 | Nc1ccc(-c2nc3ccc(-c4nc5ccc(N)cc5[nH]4)cc3[nH]2)cc1 [Ro-90-7501] | 105% | 94.5% | 100% | 98.5% | 100% | 94% | 91.6% | 96.8% | 95.3% | 99.7% | 98.3% | 98.7% | 93.4% | 79.5% | 54.6% | 104% | 105% | 102% | 102% | 97% | 93.3% | 101% | 89.7% | 98.7% | 113% | > 10 µM | > 10 µM |  | > 10 µM | > 10 µM | 0 | 0 | 4.5 | 0 | 0

— the supplement of paper PMC13380429
